Here are results for 21 compounds from US11389438B2 (CHDI Foundation, Inc., priority 2019, dated 2022).

One may read the IC50 as the concentration that gives 50% inhibition. For orientation: Kd means the constant that tells how readily two partners part at equilibrium.

In assay [1] the target is pre-formed polyQ46 or Exon1-polyQ46 aggregates (mHTT) (Homo sapiens, UniProt P42858, INS38QQQQQQQQQQQQQQQQQQQQQQQQQ). The experiment in a line: Q46_RBA radioligand binding assay (displacement of [3H]-radioligand). As for the experimental part:
Binding of W to mHTT. A radioligand binding assay was developed to screen for compounds which can efficiently displace a radioligand detailed elsewhere (see, e.g., U.S. Patent Publication No. from US 2017/0292150) pre-formed polyQ46 or Exon1-polyQ46 aggregates (Q46_RBA).
Aggregation of polyQ peptides is initiated by cleavage of the tag from a GST-polyQ46 or from a MBP-Exon1-polyQ46 fusion protein. The pre-formed aggregates are then incubated with compounds which compete with the [^3H]-radiolabelled ligand for binding to the aggregates. The readout is a scintillation based MicroBeta measurement of radioligand bound to aggregates. The activity was indicated as: +++, <100 nM; ++, 100-500 nM, +, >500 nM.
(In general: Loss of bound radioactivity is the signal in a displacement assay; it reports binding, not function.)

In assay [2] the target is VHL complex (VHL, Elongin B, Elongin C, Cul2, Rbx1) (Homo sapiens (Human), UniProt P40337). The experiment in a line: VHL SPR assay. It counts as binding. The source says: Surface Plasmon Resonance (SPR) assays have been developed to test the affinity (KD) of VHL or CRBN-based compounds to respective recombinant ligase complex/domain.
The assays are based on surface plasmon resonance (SPR), which enables to measure the changes of the local refractive index due to changes of molecular mass on a gold chip surface in the case of a binding event and in a flowing system. To detect binding between both partners, the respective E3 ligase is immobilized to the chip surface, while the test compounds are flown over the chip surface at a steady velocity. The detected changes in the RU response are indicative of the binding event and are concentration dependent.
These tags provide the anchor for the capturing process to either an NTA or Streptavidin coated chip surface (immobilization level of 3,000-5,000 RU). Because of the rather complex structure of the VHL complex, it was additionally coupled to the chip surface by amino coupling to prevent any protein loss by disruption of the complex in the flowing system.
To detect binding of compounds and extract dissociation constants KD for the tested compounds to the immobilized E3 ligase, concentration response curves of the compounds were recorded. Compounds were usually tested in 10-pt dilutions up to 20 μM final concentration in assay buffer and were flown over the chip at 30 μL/min. The contact time for each cycle includes 90 s for association and 200 s for dissociation of compounds.
In the following tables, the Kd values are indicated as: +++, <100 nM; ++, 100-500 nM, +, >500 nM.
In general terms: SPR reads the build-up and loss of mass on a sensor chip optically.

The mark [3] stands for this setting: immobilized VHL complex, read-out: VHL SPR Kd.

Read-outs that look alike come from different tables or passages of the source.

VHL complex (VHL, Elongin B, Elongin C, Cul2, Rbx1), sequence (P40337 whole entry, looked up): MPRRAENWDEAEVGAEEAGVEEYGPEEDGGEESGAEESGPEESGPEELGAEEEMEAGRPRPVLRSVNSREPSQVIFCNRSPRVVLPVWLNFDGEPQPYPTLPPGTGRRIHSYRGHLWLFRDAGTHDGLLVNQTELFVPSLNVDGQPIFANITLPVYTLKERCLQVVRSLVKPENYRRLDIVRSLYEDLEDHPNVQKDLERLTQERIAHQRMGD
VHL complex (VHL, Elongin B, Elongin C, Cul2, Rbx1), sequence (Q15370 whole entry partner, looked up): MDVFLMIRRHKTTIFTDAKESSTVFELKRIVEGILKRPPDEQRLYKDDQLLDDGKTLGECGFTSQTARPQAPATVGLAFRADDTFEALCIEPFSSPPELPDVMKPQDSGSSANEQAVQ
VHL complex (VHL, Elongin B, Elongin C, Cul2, Rbx1), sequence (Q15369 whole entry partner, looked up): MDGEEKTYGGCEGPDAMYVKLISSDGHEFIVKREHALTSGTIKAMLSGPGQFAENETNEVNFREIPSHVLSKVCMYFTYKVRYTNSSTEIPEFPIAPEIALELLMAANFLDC
VHL complex (VHL, Elongin B, Elongin C, Cul2, Rbx1), sequence (Q13617 whole entry partner, looked up): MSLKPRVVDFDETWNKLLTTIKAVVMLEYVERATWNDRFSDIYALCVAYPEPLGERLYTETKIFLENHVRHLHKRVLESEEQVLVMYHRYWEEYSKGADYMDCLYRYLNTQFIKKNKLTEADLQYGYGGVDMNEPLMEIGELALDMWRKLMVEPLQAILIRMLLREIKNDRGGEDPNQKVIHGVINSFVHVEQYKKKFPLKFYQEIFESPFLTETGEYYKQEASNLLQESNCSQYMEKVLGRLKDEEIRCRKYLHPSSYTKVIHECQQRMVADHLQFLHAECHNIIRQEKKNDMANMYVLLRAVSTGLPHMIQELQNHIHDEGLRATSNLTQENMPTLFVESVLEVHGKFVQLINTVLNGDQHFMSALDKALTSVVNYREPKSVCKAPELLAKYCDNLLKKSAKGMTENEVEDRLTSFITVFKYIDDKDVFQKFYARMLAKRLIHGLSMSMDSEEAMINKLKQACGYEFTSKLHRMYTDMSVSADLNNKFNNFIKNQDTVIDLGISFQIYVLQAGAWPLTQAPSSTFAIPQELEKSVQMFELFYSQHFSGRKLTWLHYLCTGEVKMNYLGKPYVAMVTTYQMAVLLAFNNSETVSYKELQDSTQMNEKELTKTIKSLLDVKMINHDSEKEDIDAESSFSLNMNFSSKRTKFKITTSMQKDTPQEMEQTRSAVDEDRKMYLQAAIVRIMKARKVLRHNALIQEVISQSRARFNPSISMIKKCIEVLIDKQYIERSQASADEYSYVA
VHL complex (VHL, Elongin B, Elongin C, Cul2, Rbx1), sequence (P62877 whole entry partner, looked up): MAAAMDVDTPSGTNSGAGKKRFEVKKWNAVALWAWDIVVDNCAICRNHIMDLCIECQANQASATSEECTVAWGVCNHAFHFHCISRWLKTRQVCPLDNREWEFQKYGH

Consider `Cc1ncsc1-c1ccc(CNC(=O)[C@@H]2C[C@@H](O)CN2C(=O)[C@H](C(C)C)N2Cc3ccccc3C2=O)c(OCCOCCOCCOc2ccc(COc3ccc4oc(-c5ccc(=O)n(C)n5)nc4c3)nc2)c1` [Compound 45], for which the IC50 in assay [1] was in the range of 100 to 500 nM. In addition, the Kd in assay [2] (setting [3]) was > 500 nM.

As to `Cc1ncsc1-c1ccc(CNC(=O)[C@@H]2C[C@@H](O)CN2C(=O)[C@H](C(C)C)N2Cc3ccccc3C2=O)c(OCCOc2ccc(COc3ccc4oc(-c5ccc(=O)n(C)n5)nc4c3)nc2)c1` [Compound 43, (2S,4R)-4-hydroxy-1-((S)-3-methyl-2-(1-oxoisoindolin-2-yl)butan-oyl)-N-(2-(2-((6-(((2-(1-methyl-6-oxo-1,6-dihydropyridazin-3-yl)benzo[d]oxazol-5-yl)oxy)methyl)pyridin-3-yl)oxy)ethoxy)-4-(4-methylthiazol-5-yl)benzyl)pyrrolidine-2-carboxamide], the IC50 in assay [1] was < 100 nM. The Kd in assay [2] (setting [3]) is > 500 nM.

`Cc1ncsc1-c1ccc(CNC(=O)[C@@H]2C[C@@H](O)CN2C(=O)[C@H](C(C)C)N2Cc3ccccc3C2=O)c(OCCOCCOc2ccc(COc3ccc4oc(-c5ccc(=O)n(C)n5)nc4c3)nc2)c1` [Compound 44] showed an IC50 in assay [1] of 100 to 500 nM. Besides, the dissociation constant (Kd) in assay [2] (setting [3]) is > 500 nM.

As for `CNc1c(-c2cn3c(n2)sc2cc(OCCOCCOCCOCC(=O)N[C@H](C(=O)N4C[C@H](O)C[C@H]4C(=O)NCc4ccc(-c5scnc5C)cc4)C(C)(C)C)ccc23)nc2cc(C#N)ccn12` [Compound 3], in assay [1], the IC50 is < 100 nM. Further, the Kd in assay [2] (setting [3]) was 100 to 500 nM.

Regarding `Cc1ncsc1-c1ccc(CNC(=O)[C@@H]2C[C@@H](O)CN2C(=O)[C@@H](NC(=O)COCCOCCOCCOCCOc2ccc(COc3ccc4oc(N5CCn6ccnc6C5)nc4c3)nc2)C(C)(C)C)cc1` [Compound 57], the IC50 in assay [1] was < 100 nM. The Kd in assay [2] (setting [3]) lay in the range of 100 to 500 nM.

As to `Cc1ncsc1-c1ccc(CNC(=O)[C@H]2C[C@H](O)CN2C(=O)[C@H](NC(=O)COCCOCCOc2ccc(COc3ccc4oc(-c5ccc(=O)n(C)n5)nc4c3)nc2)C(C)(C)C)cc1` [Compound 48], the IC50 in assay [1] is < 100 nM. The Kd in assay [2] (setting [3]) is > 500 nM.

On to `COc1ccc(COc2ccc3oc(N4CCN(CCOCCOCCOCCOCC(=O)N[C@H](C(=O)N5C[C@H](O)C[C@H]5C(=O)NCc5ccc(-c6scnc6C)cc5)C(C)(C)C)CC4)nc3c2)nc1` [Compound 56], for which, in assay [1], the IC50 is > 500 nM. In assay [2] (setting [3]), the dissociation constant (Kd) was in the range of 100 to 500 nM.

For `Cc1ncsc1-c1ccc(CNC(=O)[C@@H]2C[C@@H](O)CN2C(=O)[C@H](C(C)C)N2Cc3ccccc3C2=O)c(OCCOCCOCCOCCOc2ccc(COc3ccc4oc(-c5ccc(=O)n(C)n5)nc4c3)nc2)c1` [Compound 46], the IC50 in assay [1] is 101 nM. Further, the Kd in assay [2] (setting [3]) was > 500 nM.

`COc1ccc(COc2ccc3oc(N4CCN(CCOCCOCCOCC(=O)N[C@H](C(=O)N5C[C@H](O)C[C@H]5C(=O)NCc5ccc(-c6scnc6C)cc5)C(C)(C)C)CC4)nc3c2)nc1` [Compound 55, (2S,4R)-1-((S)-2-(tert-butyl)-14-(4-(5-((5-methoxypyridin-2-yl)meth-oxy)benzo[d]oxazol-2-yl)piperazin-1-yl)-4-oxo-6,9,12-trioxa-3-azatetradecanoyl)-4-hydroxy-N-(4-(4-methylthiazol-5-yl)benzyl)pyrrolidine-2-carboxamide] returned an IC50 in assay [1] of 100 to 500 nM. For the same compound, in assay [2] (setting [3]), the Kd was in the range of 100 to 500 nM.

`Cc1ncsc1-c1ccc(CNC(=O)[C@@H]2C[C@@H](O)CN2C(=O)[C@@H](NC(=O)COCCOCCOCCOc2ccc(COc3ccc4oc(N5CCNCC5)nc4c3)nc2)C(C)(C)C)cc1` [Compound 53, (2S,4R)-1-((S)-2-(tert-butyl)-4-oxo-14-((6-(((2-(piperazin-1-yl)benzo-[d]oxazol-5-yl)oxy)methyl)pyridin-3-yl)oxy)-6,9,12-trioxa-3-azatetradecanoyl)-4-hydroxy-N-(4-(4-methylthiazol-5-yl)benzyl)pyrrolidine-2-carboxamide]: the IC50 in assay [1] was > 500 nM. Further, in assay [2] (setting [3]), the Kd lay in the range of 100 to 500 nM.

`Cc1ncsc1-c1ccc(CNC(=O)[C@@H]2C[C@@H](O)CN2C(=O)[C@@H](NC(=O)COCCOCCOCCOCCOc2ccc(COc3ccc4oc(N5CCNCC5)nc4c3)nc2)C(C)(C)C)cc1` [Compound 54]: in assay [1], the IC50 is > 500 nM. Besides, the Kd in assay [2] (setting [3]) was > 500 nM.

`Cc1ncsc1-c1ccc(CNC(=O)[C@@H]2C[C@@H](O)CN2C(=O)[C@H](C(C)C)N2Cc3ccccc3C2=O)c(OCCOCCOCCOCCOc2ccc(C(=O)Nc3ccc4oc(-c5ccc(=O)n(C)n5)nc4c3)nc2)c1` [Compound 20, 5-{2-[2-(2-{2-[2-({[(2S,4R)-4-Hydroxy-1-[(2S)-3-methyl-2-(1-oxo-2,3-dihydro-1H-isoindol-2-yl)butanoyl]pyrrolidin-2-yl]formamido}methyl)-5-(4-methyl-1,3-thiazol-5-yl)phenoxy]ethoxy}ethoxy)ethoxy]ethoxy}-N-[2-(1-methyl-6-oxo-1,6-dihydropyridazin-3-yl)-1,3-benzoxazol-5-yl]pyridine-2-carboxamide]: the IC50 in assay [1] was < 100 nM. For the same compound, the Kd in assay [2] (setting [3]) is 100 to 500 nM.

`Cc1ncsc1-c1ccc(CNC(=O)[C@@H]2C[C@@H](O)CN2C(=O)[C@@H](NC(=O)COCCOCCOc2ccc(COc3ccc4oc(-c5ccc(=O)n(C)n5)nc4c3)nc2)C(C)(C)C)cc1` [Compound 47, (2S,4R)-1-[(2S)-3,3-Dimethyl-2-{2-[2-(2-{[6-({[2-(1-methyl-6-oxo-1,6-dihydropyridazin-3-yl)-1,3-benzoxazol-5-yl]oxy}methyl)pyridin-3-yl]oxy}ethoxy)ethoxy]acetamido}butanoyl]-4-hydroxy-N-{[4-(4-methyl-1,3-thiazol-5-yl)phenyl]methyl}pyrrolidine-2-carboxamide]: the IC50 in assay [1] was < 100 nM. The Kd in assay [2] (setting [3]) is 100 to 500 nM.

For the compound `Cc1ncsc1-c1ccc(CNC(=O)[C@@H]2C[C@@H](O)CN2C(=O)[C@@H](NC(=O)COCCOCCOCCOc2ccc(COc3ccc4oc(N5CCn6ccnc6C5)nc4c3)nc2)C(C)(C)C)cc1` [Compound 58, (2S,4R)-1-((S)-2-(tert-butyl)-14-((6-(((2-(5,6-dihydroimidazo[1,2-a]pyrazin-7(8H)-yl)benzo[d]oxazol-5-yl)oxy)methyl)pyridin-3-yl)oxy)-4-oxo-6,9,12-trioxa-3-azatetra-decan-1-oyl)-4-hydroxy-N-(4-(4-methylthiazol-5-yl)benzyl)-pyrrolidine-2-carboxamide], the IC50 in assay [1] lay within 100 to 500 nM. In assay [2] (setting [3]), the Kd is > 500 nM.

As for `CNc1c(-c2cn3c(n2)sc2cc(OCCOCCOCC(=O)N[C@H](C(=O)N4C[C@H](O)C[C@H]4C(=O)NCc4ccc(-c5scnc5C)cc4)C(C)(C)C)ccc23)nc2cc(C#N)ccn12` [Compound 2], the half-maximal inhibitory concentration (IC50) in assay [1] was < 100 nM. For the same compound, in assay [2] (setting [3]), the Kd fell in the range of 100 to 500 nM.

As for `Cc1ncsc1-c1ccc(CNC(=O)[C@@H]2C[C@@H](O)CN2C(=O)[C@@H](NC(=O)CCOCCOCCOCCOc2ccc(C(=O)Nc3ccc4oc(-c5ccc(=O)n(C)n5)nc4c3)nc2)C(C)(C)C)cc1` [Compound 23], the half-maximal inhibitory concentration (IC50) in assay [1] is < 100 nM. The Kd in assay [2] (setting [3]) was < 100 nM.

Regarding `Cc1ncsc1-c1ccc(CNC(=O)[C@@H]2C[C@@H](O)CN2C(=O)[C@@H](NC(=O)CCOCCOCCOc2ccc(C(=O)Nc3ccc4oc(-c5ccc(=O)n(C)n5)nc4c3)nc2)C(C)(C)C)cc1` [Compound 22, 5-{2-[2-(2-{[(2S)-1-[(2S,4R)-4-Hydroxy-2-({[4-(4-methyl-1,3-thiazol-5-yl)phenyl]methyl}carbamoyl)pyrrolidin-1-yl]-3,3-dimethyl-1-oxobutan-2-yl]carbamoyl}ethoxy)ethoxy]ethoxy}-N-[2-(1-methyl-6-oxo-1,6-dihydropyridazin-3-yl)-1,3-benzoxazol-5-yl]pyridine-2-carboxamide], in assay [1], the half-maximal inhibitory concentration (IC50) was < 100 nM. Besides, the Kd in assay [2] (setting [3]) is < 100 nM.

Consider `Cc1ncsc1-c1ccc(CNC(=O)[C@@H]2C[C@@H](O)CN2C(=O)[C@@H](NC(=O)CCOCCOCCOCCOCCOCCOCCOCCOCCOc2ccc(C(=O)Nc3ccc4oc(-c5ccc(=O)n(C)n5)nc4c3)nc2)C(C)(C)C)cc1` [Compound 25], for which the IC50 in assay [1] lay within 100 to 500 nM. The same compound had a Kd in assay [2] of 100 to 500 nM.

For the compound `Cc1ncsc1-c1ccc(CNC(=O)[C@H]2C[C@H](O)CN2C(=O)[C@@H](C(C)C)N2Cc3ccccc3C2=O)c(OCCOCCOCCOCCOc2ccc(C(=O)Nc3ccc4oc(-c5ccc(=O)n(C)n5)nc4c3)nc2)c1` [Compound 11], the IC50 in assay [1] was < 100 nM. In addition, the Kd in assay [2] (setting [3]) is > 500 nM.

As to `Cc1ncsc1-c1ccc(CNC(=O)[C@@H]2C[C@@H](O)CN2C(=O)[C@@H](NC(=O)CCOCCOCCOCCOCCOCCOc2ccc(C(=O)Nc3ccc4oc(-c5ccc(=O)n(C)n5)nc4c3)nc2)C(C)(C)C)cc1` [Compound 24], in assay [1], the 50% inhibitory concentration (IC50) was < 100 nM. The Kd in assay [2] (setting [3]) is < 100 nM.

`Cn1nc(-c2nc3cc(NC(=O)c4ccc(OCCOCCNc5cccc6c5C(=O)N(C5CCC(=O)NC5=O)C6=O)cn4)ccc3o2)ccc1=O` (centres unmarked) [Compound 35]: the half-inhibitory concentration (IC50) in assay [1] is < 100 nM.
